One data set can be described thus: Plasma PK profiles. It counts as in vivo.
The next data set concerns the target Ala-AT (Sus scrofa, UniProt P13191). Description: Inhibition of Ala-AT. In kind it is biochemical, porcine. As to conditions: up to 10 mM. As to the method:
All reagents for enzyme purification and assays were purchased from Sigma-Aldrich (St. Louis, MO, USA). […] All the enzyme assays for the inactivation, partition ratio, and dialysis experiment were recorded on a Synergy H1 hybrid multimode microplate reader (Biotek, USA) with transparent 96-well plates.
potassium phosphate at pH 7.4, 5.55 mM α-ketoglutarate, 1.11 mM NADH, 5.55 mM […], 5.55 units of malic dehydrogenase, and various concentrations of SS-1-148. […] The plate was shaken at room temperature for 1 min, and the absorbance was measured at 340 nm every 10 s for 90 min based on the conversion of NADH to NAD^+. The remaining Asp-AT activity percentage was calculated according to the corresponding concentrations. […]

Data set [1] addresses T1, hOAT (Homo sapiens, UniProt P04181).
T1 construct: made in house; host or cells: E. coli BL21(DE3)
T1 sequence (P04181 26-439): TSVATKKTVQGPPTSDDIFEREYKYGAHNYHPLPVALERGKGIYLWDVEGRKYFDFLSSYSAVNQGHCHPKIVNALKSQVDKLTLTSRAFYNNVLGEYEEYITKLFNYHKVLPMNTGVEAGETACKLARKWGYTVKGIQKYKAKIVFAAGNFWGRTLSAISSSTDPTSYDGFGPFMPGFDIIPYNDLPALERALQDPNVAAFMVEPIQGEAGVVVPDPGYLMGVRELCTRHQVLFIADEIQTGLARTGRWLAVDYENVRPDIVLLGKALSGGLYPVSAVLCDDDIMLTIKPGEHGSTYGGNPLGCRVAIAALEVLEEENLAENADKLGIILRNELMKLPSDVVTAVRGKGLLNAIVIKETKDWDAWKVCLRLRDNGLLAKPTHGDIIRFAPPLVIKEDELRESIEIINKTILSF
As to the kind of experiment: Time-dependent dialysis of inhibited hOAT. Particulars: up to 48 h against buffer with excessive PLP and α-KG. In kind it is biochemical. Here is the method: Plausible Inactivation Mechanisms of SS-1-148 with hOAT. The irreversibility of the inhibition of hOAT by SS-1-148 was evaluated by a time-dependent dialysis experiment up to 48 h against a buffer consisting of excessive PLP and α-KG (FIG. 10). […] To reveal the structure of the final product in the inactivation reaction, we co-crystallized hOAT with an excessive amount of SS-1-148. […] It also contains three copies of the protein monomer in one asymmetric unit. Similar to the soaking crystal structure shown in FIG. 4A, PLP is covalently linked to SS-1-148 moiety in the cocrystal structure. However, no covalent bond is noticed between Lys292 and the final product. Moreover, in the published crystal structure of the native enzyme (holo-hOAT), Arg413 typically forms a salt bridge with Glu235, which is found intact for several cocrystals of hOAT with different inactivators.^14, 23, 26 In the hOAT/SS-1-148 soaking result (FIG. 4A), the salt bridge of Arg413-Glu235 is broken due to the existence of an alternative salt bridge between the carboxylate of one intermediate and Arg413. […] Instead, Arg413, Gln266, and the final product are hydrogen-bonded to the same water molecule.
The dialysis experiment was conducted using previous protocols.^8-10

Data set [2] addresses T1, hOAT. As to the kind of experiment: Time-dependent inactivation of hOAT. In kind it is biochemical. As to the method:
All reagents for enzyme purification and assays were purchased from Sigma-Aldrich (St. Louis, MO, USA). Human OAT (0.672 mg/mL) was purified from E. coli BL21 (DE3) cells following the procedure described above, and coenzyme human recombinant pyrroline 5-carboxylate reductase (PYCRI) were expressed, grown, and purified according to a literature procedure.^4 γ-Aminobutyric acid aminotransferase (GABA-AT, 0.4 mg/mL) was purified from pig brain following a procedure described previously^5, and coenzyme succinic semialdehyde dehydrogenase (SSDH) was purified from GABase (catalog No. G7509-25UN, Sigma-Aldrich), a commercially available mixture of SSDH and GABA-AT, using a known procedure.^6 Commercially available L-aspartate aminotransferase (Asp-AT) from the porcine heart (catalog No. G2751-2KU, Sigma-Aldrich) and the desired assay coenzyme malic dehydrogenase from porcine (catalog No. M2634-5KU, Sigma-Aldrich), and L-alanine aminotransferase (Ala-AT) from the porcine heart (catalog No. G8255-200UN, Sigma-Aldrich) and the desired assay coenzyme lactate dehydrogenase from porcine (catalog No. 427211-50KU, Sigma-Aldrich) were used directly without further purification. All the enzyme assays for the inactivation, partition ratio, and dialysis experiment were recorded on a Synergy H1 hybrid multimode microplate reader (Biotek, USA) with transparent 96-well plates.
Time-dependent inactivation against hOAT was performed using an optimized procedure published previously.^7 10 μL of hOAT (0.025 mg/mL) was preincubated with 10 μL of various concentrations of tested compounds in 100 mM potassium pyrophosphate buffer (pH 8.0, 5 mM α-ketoglutarate, and 5 mM β-mercaptoethanol) at 25° C. in a 96-well plate. At time intervals, 80 μL of assay solution containing PYCR^1 (0.5 μg), 1 mM NADH, and 25 mM L-ornithine in the abovementioned potassium pyrophosphate buffer were added to the incubation mixture and assayed for OAT activity at 37° C. for 30 min. The change in UV absorbance at 340 nm at 37° C. based on the conversion of NADH to NAD was monitored by a microplate reader. All assays were performed in duplicate, and the remaining OAT activity at each preincubation time at each inhibitor concentration was averaged. The natural logarithm of the percentage of the remaining OAT activity was plotted against the preincubation time at each inhibitor concentration to obtain the kobs (slope) value for each concentration. The kobs value is the rate constant describing the inactivation at each inhibitor concentration. kobs is replotted against the inhibitor concentration using nonlinear regression analysis using GraphPad Prism 8.0. K1 and kinact values were estimated from equation (1)
where kinact is the maximal rate of inactivation, K1 is the inhibitor concentration required for half-maximal inactivation, and [I] is the preincubation concentration of the tested compound.

Molecules are shown by their SMILES. Where a name gives a salt, the structure may show the parent alone.

Broadly, the AUC(0-inf) is total exposure, with the tail of the curve extrapolated. In general, AUC(0-t) refers to exposure summed from dosing to a finite time, without extrapolation to infinity. A low value points to less exposure. In general, Cmax refers to the highest concentration seen after dosing. One may read the clearance as the volume of plasma or blood freed of the substance per unit of time. High values mean a high capacity for elimination, low ones a low capacity for elimination. Usually Tmax stands for the time at which the peak concentration occurs. A word on the bioavailability: it is the share of a dose that reaches the circulation, judged against a reference dose that is usually intravenous. The low end stands for poor availability, the high end for good availability. As usually defined, the kinact/KI is the maximal inactivation rate divided by the concentration that gives half of it. A word on the kinact: it is the rate constant of inactivation at saturating inhibitor.

Chain of Ala-AT (P13191 whole entry): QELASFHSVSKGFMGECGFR

As to `N[C@H]1C=C(C(=O)O)CC1(F)F` [SS-1-148, (S)-3-Amino-4,4-difluorocyclopent-1-enecarboxylic acid hydrochloric acid salt], in the data set “Plasma PK profiles” (IV (5 mg/kg)), the AUC(0-inf) turned out to be 1160 ng·h/mL, the AUC(0-t) turned out to be 1150 ng·h/mL, the concentration peaked (Cmax) at 4680 ng/mL and the T1/2 is listed as 0.43 H. Besides, in “Plasma PK profiles” (IV (5 mg/kg)), the clearance worked out at 72 mL/min/kg. Moreover, the Vd in “Plasma PK profiles” (IV (5 mg/kg), read-out: Vss) was determined as 1.01 L/kg. In the data set “Plasma PK profiles” (PO (30 mg/kg)), the AUC(0-inf) was 8530 ng·h/mL, the AUC(0-t) worked out at 8440 ng·h/mL, the peak level (Cmax) was 8080 ng/mL and the Tmax worked out at 15 min. In addition, the bioavailability in “Plasma PK profiles” (PO (30 mg/kg)) was around 100%. The “inhibition on Ala-AT” value at Ala-AT was “did not show noticeable inhibition”. Moreover, at hOAT [1], the “remaining activity of hOAT after dialysis” value is given as “unchanged”. Besides, at hOAT [2], the “improvement of inactivation efficiency (kinact/K1) relative to parent compound 4” value was determined as 444 fold and the “type of inhibition on hOAT” value is given as “irreversible inhibitor”. For the same compound, on hOAT [2] (inactivation efficiency), the kinact/KI is 22.2 M⁻¹ s⁻¹. Moreover, at hOAT [2] (mean and standard error), the kinact is 0.00133 s⁻¹.

The record behind these values is US20240174596A1 (Northwestern University, priority 2021, published 2024).
